Source: US20210061929A1, “ACTIVE-ENERGY-RAY-CURABLE COMPOSITION, ACTIVE-ENERGY-RAY-CURABLE INK, COMPOSITION STORED CONTAINER, TWO-DIMENSIONAL OR THREE-DIMENSIONAL IMAGE FORMING METHOD AND APPARATUS, CURED PRODUCT, AND DECORATED PRODUCT” (priority 2019, published 2021)

Tests used:
[1] = Oral toxicity according to OECD test guideline TG423; assay type: in vivo
Procedure: (§1) As a safety test, AMES test was performed according to OECD test guideline TG471 (±S9 mix), and the result was negative. Oral toxicity was tested according to OECD test guideline TG423. […] Skin stimulation was tested according to OECD test guideline TG404, and the result was PII=0.5. Skin sensitizing potential was tested according to OECD test guideline TG442B.

[2] = Skin sensitization test by local lymph node assay (LLNA), SI value of the materials; assay type: in vivo; details: for SI (skin sensitization SI value): material as such, local lymph node assay (LLNA) method
Procedure: The amine value of the dispersant polymer, a skin sensitization SI value indicating a skin sensitizing potential, and the colony count by Ames test indicating carcinogenicity were obtained in the manners described below.
The SI value was measured by a skin sensitization test according to a local lymph node assay (LLNA) method.
Oral toxicity was tested according to OECD test guideline TG423. […] Skin sensitizing potential was tested according to OECD test guideline TG442B.

[3] = assay type: in vivo; details: OECD test guideline TG404
Procedure: as §1

[4] = assay type: cell-based; details: OECD test guideline TG471 (±S9 mix)
Procedure: as §1

Compound: C=CC(=O)N(C)CC(=O)OC [Example A1-1, N-acryloyl-N-methylglycinemethyl ester]
- LD50 ([1]; in vivo, po, 2000 mg/kg): ≥ 2000 mg/kg
- Fatal cases (oral toxicity) ([1]; six cases): none of six cases was a fatal case
- SI value (skin sensitizing potential) ([2]; OECD test guideline TG442B): 1.00
- Influence on the health of human bodies (conclusion of the safety tests) ([2]; in vivo, po): significantly uninfluential on the health of human bodies
- SI (skin sensitization SI value) [2]: (see Synthesis example 1) SI = 1.00
- PII (skin stimulation) [3]: 0.5
- AMES test result [4]: negative

Compound: C=CC(=O)N(C)CC(=O)OCC [Example A1-2, N-acryloyl-N-methylglycineethyl ester]
- SI (skin sensitization SI value) [2]: (see Synthesis example 2) SI = 1.02

Compound: C=CC(=O)N(C)C(C)C(=O)OC (stereo not shown) [Example A1-3, N-acryloyl-N-methylalaninemethyl ester]
- SI (skin sensitization SI value) [2]: (see Synthesis example 3) SI = 1.12

Compound: C=C(C)C(=O)OCCOCCOC(=O)C(=C)C [Example A2-1]
- SI (skin sensitization SI value) [2]: Shin- Nakamura Chemical Co., Ltd. “2G” SI = 1.05 Ltd.

Compound: C=C(C)C(=O)OCC(CC)(COC(=O)C(=C)C)COC(=O)C(=C)C [Example A2-3]
- SI (skin sensitization SI value) [2]: Shin- Nakamura Chemical Co., Ltd. “TMPT” SI = 1.03

Compound: C=C(C)C(=O)OCC(COC(=O)C(=C)C)OC(C)=O [Example A2-6, 2-acetyl-1,3-glycerol dimethacrylate]
- SI (skin sensitization SI value) [2]: (see Synthesis example 5) SI = 1.40

Compound: C=C(C)C(=O)OCCO [Example A3-1, 2-hydroxyethyl methacrylate]
- SI (skin sensitization SI value) [2]: Tokyo Chemical Industry Co., Ltd. “2-hydroxyethyl methacrylate” SI = 1.26

Compound: C=CC(=O)OCC(CC)(COC(=O)C=C)COC(=O)C=C [Example A4-1]
- SI (skin sensitization SI value) [2]: Toagosei Co., Ltd. “M-3547” SI = 3.42

Compound: Isobornyl acrylate [Example A3-2]
- SI (skin sensitization SI value) [2]: Osaka Organic Chemical Industry Ltd. “Isobomyl acrylate” SI = 8.30
- SI (skin sensitization SI value) ([2]; listed as IBXA): 8.30
